{
  "source": "patent US11001591B2",
  "about": "“TRAF 6 inhibitors” (HELMHOLTZ ZENTRUM MUENCHEN—DEUTSCHES FORSCHUNGSZENTRUM FÜR …, priority 2016, dated 2021)",
  "key": {"[1]": {"system": "human peripheral blood mononuclear cells (PBMCs)", "assay": "Cytokine secretion of primary human PBMCs", "assay_type": "cell-based", "protocol": "(§1) For measurement of cytokine secretion, 2×10^5 Jurkat T-cells or primary CD4^+ T-cells or human PBMCs per sample were seeded, treated with compound for 6 hours and stimulated as indicated. 20 hours after stimulation, supernatants were harvested and analyzed with the IL-2, IL-1β and TNFα Ready-Set-Go! ELISA (2nd Generation) kits provided by Affymatrix eBioscience.\nFor isolation of peripheral blood mononuclear cells (PBMCs) from 50 mL human blood of three different donors, blood was mixed with 800 units of Heparin (Sigma-Aldrich) and centrifuged at 300×g for 10 minutes without brake. After removal of the plasma fraction, buffy coat was diluted in 2 volumes PBS and added on top of 15 ml Lymphoprep (STEMCELL technologies). After centrifugation at 160×g for 20 minutes at room temperature without brake, platelets were removed and the cell suspension was centrifuged again at 350 xg for 20 minutes without brake. Mononuclear cells from the intermediate layer were transferred to a new falcon and washed 3 times in PBS supplemented with 0.1% BSA and 2 mM EDTA. In the end, cells were resuspended in RPMI medium containing 10% FCS, 1% Penicillin/Streptomycin and 50 μM β-mercaptoethanol. Per sample, 2×10^5 cells were seeded and treated with compound for 6 hours. The cells were stimulated with either 1 μg/ml Lipopolysaccharide (LPS) or CD3/CD28 (1 μg hCD3 (IgG2A), 4 μg hCD28 (IgG1), 2 μg ant-IgG2A and 2 μg ant-IgG2A) or 20 ng/IL-1β. Supernatants for analysis of cytokine secretion were harvested 20 hours after stimulation."}, "plasma protein": {"system": "plasma protein", "assay": "Plasma protein binding", "assay_type": "in vitro ADME", "protocol": "All ADME (plasma stability, plasma protein binding, microsomal stability, Log D, Caco-2 assay, CYP450 inhibition and hERG predictor assay) as well as pharmacokinetic studies (Tmax, Cmax, AUC0-240 min, Mean Residence Time, Elimination half life, Elimination rate constant, Volume of Distribution and Clearance) of C25-140 (compound 3) were conducted by Bienta Enamine Biology Services of Bienta/Enamine Ltd."}, "p-IκBα (Ser32/36)": {"system": "p-IκBα (Ser32/36)", "assay": "ALPHASurefire p-IκBα in IL-1β stimulated MEF cells", "assay_type": "cell-based, mouse", "settings": "compared with C25, C25-189, C25-167; FIG. 1C", "protocol": "In order to detect protein levels of p-IκBα (Ser32/36) as well as total IκBα, 1×10^4 MEF cells were seeded in 96-well plates, treated with compound for 6 hours and stimulated with 1 ng/ml IL-1β for 7 minutes. The p-IκBα and total IκBα protein levels were analyzed using the ALPHASurefire kits (PerkinElmer) following the manufacturer's instruction. The general 2-plate protocol was conducted."}, "[2]": {"system": "24 different Ubiquitin reaction cascades", "assay": "Ubiquitin Profiler (Eurofins)", "assay_type": "biochemical", "settings": "30 μM compound", "protocol": "C25-140 was sent to Eurofins Pharma Discovery Services UK to perform a Single Point Ubiquitin Profiler testing of C25-140 effect at a concentration of 30 μM on 24 different Ubiquitin reaction cascades employing distinct combinations of E2, E3 and substrate. Each reaction was measured in duplicates. Cascade activity is expressed as a percentage of the mean cascade activity in the positive control samples. The positive control value is considered to be 100%, and all test samples are referred to this value."}, "[3]": {"system": "Collagen-Induced Arthritis, DBA1/J mice", "assay": "Collagen-Induced Arthritis (CIA) model", "assay_type": "in vivo, mouse", "protocol": "In order to test the potential of C25-140 to ameliorate RA symptoms, a Collagen-Induced Arthritis (CIA) Model in DBA1/J mice was performed by Washington Biotechnology, Inc. (Baltimore, USA). Each group of ten mice was subjected to a single subcutaneous injection of collagen/complete Freund's Adjuvant emulsion (0.05 ml/mouse; 100 μg collagen/CFA). After 20 days (day 21), mice were booster injected with collagen (0.05 ml/mouse; 100 μg/mouse collagen in Incomplete Freund's Adjuvant). On day 28, mice were scored for their Arthritic Index (AI) and 14 days intraperitoneally dosed twice daily with 6 mg/kg, 10 mg/kg and 14 mg/kg C25-140, respectively. Mice were scored of macroscopic signs of arthritis daily. Thereby, the following scoring index was applied to each individual paw: 0=no visible effects of arthritis; 1=edema and/or erythema of 1 digit; 2=edema and/or erythema of 2 digits; 3=edema and/or erythema of more than 2 digits; 4=severe arthritis of entire paw and digits. Single paw scores were added and recorded. On day 42, animals were euthanized, limbs were collected and histopathology was performed using Toluidine blue staining with scoring of several parameters."}, "IKK kinase activity": {"system": "IKK kinase activity", "assay": "IKK kinase assay in Jurkat T-cells", "assay_type": "cell-based, human", "settings": "PMA/Ionomycin", "protocol": "For MEF cells, 5.5×10^5 cells were seeded, then treated with compound for 6 hours and eventually stimulated with IL-1β or TNFα for 8 minutes. 1×10^6 Jurkat T-cells were treated with compound for 6 hours and finally stimulated with PMA (400 ng/ml) and lonomycin (600 ng/ml) for 8 minutes. After cell lysis in Co-IP lysis buffer (150 mM NaCl; 25 mM Hepes (pH 7.5); 0.2% NP-40; 1 mM Glycerol; 10 mM NaF; 8 mM β-Glycerophosphat; 1 mM DTT; 300 μM Sodium-vanadate; complete protease inhibitor), input samples were taken and the supernatant was then incubated with 6 μL IKKγ antibody FL-419 (Santa Cruz Biotechnology). Upon incubation with Protein-G-Sepharose beads (GE Healthcare), beads were washed in Co-IP wash buffer (150 mM NaCl; 25 mM Hepes (pH 7.5); 0.2% NP-40; 1 mM Glycerol) and transferred into kinase reaction buffer ([…] HEPES pH7.9; 10 mM MgCl2; 20 μM ATP; 20 mM β-Glycerophosphat; 200 μM Sodium-Vanadate; 1 mM DTT) supplemented with […] GST-IκBα (1-53) and 0.5 μL ^32P-γ-ATP. After 30 minutes incubation at 37° C., reaction was stopped and analyzed by autoradiography as well as Western Blot after separation on SDS-PAGE."}, "IL-2 and TNFα": {"system": "IL-2 and TNFα", "assay": "ELISA cytokine secretion of Jurkat T-cells", "assay_type": "cell-based, human", "settings": "PMA/Ionomycin", "protocol": "as §1"}},
  "data": [
    {"smiles": "Cc1nn(-c2ccc3nnc(C)n3n2)c(C)c1CCC(=O)N1CCC(Cc2ccccc2)CC1", "note": "[Compound 3, 1-(4-benzylpiperidin-1-yl)-3-(3,5-dimethyl-1-(3-methyl-[1,2,4]triazolo[4,3-b]pyridazin-6-yl)-1H-pyrazol-4-yl)propan-1-one]", "values": [
      {"measurement": "secretion of IL-2 and TNFα", "setting": "[1]; human PBMCs stimulated with CD3/CD28", "result": "decreased levels"},
      {"measurement": "secretion of IL-6 and TNFα", "setting": "[1]; human PBMCs stimulated with IL-1β", "result": "attenuated"},
      {"measurement": "secretion of IL-1β and TNFα", "setting": "[1]; human PBMCs stimulated with LPS", "result": "reduced levels"},
      {"measurement": "plasma protein binding", "setting": "plasma protein", "result": "decent good plasma protein binding capacity"},
      {"measurement": "p-IκBα protein levels, ALPHASurefire", "setting": "p-IκBα (Ser32/36)", "result": "more active"},
      {"measurement": "inhibition of ubiquitination cascades, Ubiquitin Profiler panel", "setting": "[2]", "result": "None of the reactions is considerably inhibited"},
      {"measurement": "arthritic index (AI)", "setting": "[3]; 10 mg/kg and 14 mg/kg IP twice daily, 14 days", "result": "almost completely ameliorated"},
      {"measurement": "histology of limbs (summed scores, inflammation, pannus, cartilage damage, bone resorption)", "setting": "[3]; 6, 10, 14 mg/kg IP twice daily", "result": "dose-dependently improves"},
      {"measurement": "body weight", "setting": "[3]; throughout the study", "result": "did not show any signs of reduction"},
      {"measurement": "IKK kinase activity", "setting": "IKK kinase activity", "result": "diminished"},
      {"measurement": "cytokine secretion of IL-2 and TNFα", "setting": "IL-2 and TNFα", "result": "dose-dependently decreased"}
    ]}
  ]
}
